According to patent publication US20240116985A1, “STAPLED PEPTIDES AND METHODS THEREOF” (priority 2020, published 2024):

assay: CHI Log D procedure; assay type: physicochemical; details: pH 7.4

| Compound | CHI Log D |
| --- | --- |
| CC(=O)N[C@@H](Cc1ccccc1)C(=O)N[C@@H](CC(=O)O)C(=O)N[C@@H](C)C(=O)N[C@]1(C)CCCCCCC=CCOC(=O)N2CC[C@@](C(=O)N[C@@H](Cc3ccccc3)C(=O)N[C@@H](Cc3c[nH]c4ccccc34)C(=O)N[C@@H](CCC(N)=O)C(N)=O)(C2)NC(=O)[C@H](C(C)C)NC(=O)[C@H](Cc2ccccc2)NC(=O)[C@H](CCCC(=O)O)NC(=O)[C@H](C)NC(=O)[C@H](CC(=O)O)NC(=O)[C@H](CC(=O)O)NC1=O [I-23, Ac-Phe-Asp-Ala-R8-Asp-Asp-Ala-Aad-Phe-Val-PyrS-Phe-Trp-Gln-NH2] | 0.942 |
| CC(=O)N1CCC[C@]12CC=CCCCC1(CCCC=CCCCCCC[C@@](C)(C(=O)N[C@@H](Cc3ccccc3)C(=O)N[C@@H](Cc3c[nH]c4ccccc34)C(=O)N[C@@H](CCC(N)=O)C(N)=O)NC(=O)[C@H](C(C)C)NC(=O)[C@H](Cc3cccc(Cl)c3)NC(=O)[C@H](C)NC(=O)[C@H](C)NC(=O)[C@H](CC(=O)O)NC(=O)[C@H](CC(=O)O)NC1=O)NC(=O)[C@H](C)NC(=O)[C@H](CC(=O)O)NC2=O (stereo partly drawn) [I-306, Ac-PL3-Asp-Ala-B5-Asp-Asp-Ala-Ala-3C1F-Val-S8-Phe-Trp-Gln-NH2] | 2.03 |
| CC(=O)NC(C)(C)C(=O)N[C@@H](CC(=O)O)C(=O)N[C@@H](C)C(=O)N[C@]1(C)CCCCCCC=CCOC(=O)N2CC[C@@](C(=O)N[C@@H](Cc3ccccc3)C(=O)N[C@@H](Cc3c[nH]c4ccccc34)C(=O)N[C@@H](CCC(N)=O)C(N)=O)(C2)NC(=O)[C@H](C(C)C)NC(=O)[C@H](Cc2ccccc2)NC(=O)[C@H](C)NC(=O)[C@H](C)NC(=O)[C@H](CCC(=O)O)NC(=O)[C@H](CC(=O)O)NC1=O [I-157, Ac-Aib-Asp-Ala-R8-Asp-Glu-Ala-Ala-Phe-Val-PyrS-Phe-Trp-Gln-NH2] | 1.202 |
| CC(=O)N[C@@H](Cc1ccccc1)C(=O)N[C@@H](CC(=O)O)C(=O)N[C@@H](C)C(=O)N[C@]1(C)CCCCCCC=CCOC(=O)N2CC[C@@](C(=O)N[C@@H](Cc3ccccc3)C(=O)N[C@@H](Cc3c[nH]c4ccccc34)C(=O)N[C@@H](CCC(N)=O)C(N)=O)(C2)NC(=O)[C@H](C(C)C)NC(=O)[C@H](Cc2ccccc2)NC(=O)[C@H](C)NC(=O)[C@H](C)NC(=O)[C@H](Cc2ccc(C(=O)O)cc2)NC(=O)[C@H](CC(=O)O)NC1=O (single isomer, unassigned) [I-8, Ac-Phe-Asp-Ala-R8-Asp-4COOHF-Ala-Ala-Phe-Val-PyrS-Phe-Trp-Gln-NH2] | 1.349 |
| CC(=O)N[C@@H](Cc1ccccc1)C(=O)N[C@@H](CC(=O)O)C(=O)N[C@@H](C)C(=O)N[C@]1(C)CCCCCCC=CCOC(=O)N2CC(C(=O)N[C@@H](Cc3ccccc3)C(=O)N[C@@H](Cc3c[nH]c4ccccc34)C(=O)N[C@@H](CCC(N)=O)C(N)=O)(C2)NC(=O)[C@H](C(C)C)NC(=O)[C@H](Cc2ccccc2)NC(=O)[C@H](C)NC(=O)[C@H](C)NC(=O)[C@H](CC(=O)O)NC(=O)[C@H](CC(=O)O)NC1=O (single isomer, unassigned) [I-40, Ac-Phe-Asp-Ala-R8-Asp-Asp-Ala-Ala-Phe-Val-Az-Phe-Trp-Gln-NH2] | 1.243 |
| CC(=O)N[C@@H](Cc1ccccc1)C(=O)N[C@@H](CC(=O)O)C(=O)N[C@@H](C)C(=O)N[C@]1(C)CCCCCCC=CCOC(=O)N2CC[C@@](C(=O)N[C@@H](Cc3ccccc3C(N)=O)C(=O)N[C@@H](Cc3c[nH]c4ccccc34)C(=O)N[C@@H](CCC(N)=O)C(N)=O)(C2)NC(=O)[C@H](C(C)C)NC(=O)[C@H](Cc2ccccc2)NC(=O)[C@H](C)NC(=O)[C@H](C)NC(=O)[C@H](CC(=O)O)NC(=O)[C@H](CC(=O)O)NC1=O (single isomer, unassigned) [I-106, Ac-Phe-Asp-Ala-R8-Asp-Asp-Ala-Ala-Phe-Val-PyrS-2CBMF-Trp-Gln-NH2] | 1.038 |
| CC(=O)N[C@@H](Cc1ccccc1)C(=O)N[C@@H](CC(=O)O)C(=O)N[C@@H](C)C(=O)N[C@]1(C)CCN(C)C(=O)OCC=CCCCCC[C@@](C)(C(=O)N[C@@H](Cc2ccccc2)C(=O)N[C@@H](Cc2c[nH]c3ccccc23)C(=O)N[C@@H](CCC(N)=O)C(N)=O)NC(=O)[C@H](C(C)C)NC(=O)[C@H](Cc2ccccc2)NC(=O)[C@H](C)NC(=O)[C@H](C)NC(=O)[C@H](CC(=O)O)NC(=O)[C@H](CC(=O)O)NC1=O (single isomer, unassigned) [I-2, Ac-Phe-Asp-Ala-RdN-Asp-Asp-Ala-Ala-Phe-Val-S7-Phe-Trp-Gln-NH2] | 1.246 |

Other lines, results leading:

| CHI Log D | Compound |
| --- | --- |
| 1.723 | CC[C@H](C)[C@H](NC(=O)[C@H](CC(=O)O)NC(=O)[C@H](C)NC(C)=O)C(=O)N[C@]1(C)CCN(C)C(=O)OCC=CCCCCC[C@@](C)(C(=O)N[C@@H](Cc2ccccc2)C(=O)N[C@@H](Cc2c[nH]c3ccccc23)C(=O)N[C@@H](Cc2c[nH]cn2)C(N)=O)NC(=O)[C@H](CCC(N)=O)NC(=O)[C@H](Cc2ccccc2)NC(=O)[C@H](C)NC(=O)[C@H](C)NC(=O)[C@H](CC2CCCCC2)NC(=O)[C@H](CC(=O)O)NC1=O (single isomer, unassigned) [I-73, Ac-Ala-Asp-Ile-RdN-Asp-Cha-Ala-Ala-Phe-Gln-S7-Phe-Trp-His-NH2] |
| 4.365 | CC[C@H](C)[C@@H]1NC(=O)[C@H](CC(=O)O)NC(=O)[C@]2(CC=CCCCC3(CCCC=CCCCCCC[C@@](C)(C(=O)N[C@@H](Cc4ccccc4)C(=O)N[C@@H](Cc4csc5ccccc45)C(=O)N[C@@H](CCC(N)=O)C(N)=O)NC(=O)[C@H](CCC(N)=O)NC(=O)[C@H](Cc4ccccc4)NC(=O)[C@H](C)NC(=O)[C@H](C)NC(=O)[C@H](CCC(=O)O)NC(=O)[C@H](CNS(=O)(=O)C(F)(F)F)NC3=O)NC1=O)CCCN2C(C)=O (stereo partly drawn) [I-631, Ac-PL3-Asp-Ile-B5-[Tf]Dap-Glu-Ala-Ala-Phe-Gln-S8-Phe-BztA-Gln-NH2] |
| 2.03 | CC(=O)N1CCC[C@]12CC=CCCCC1(CCCC=CCCCCCC[C@@](C)(C(=O)N[C@@H](Cc3ccccc3)C(=O)N[C@@H](Cc3c[nH]c4ccccc34)C(=O)N[C@@H](CCC(N)=O)C(N)=O)NC(=O)[C@H](C(C)C)NC(=O)[C@H](Cc3ccc(Cl)cc3)NC(=O)[C@H](C)NC(=O)[C@H](C)NC(=O)[C@H](CC(=O)O)NC(=O)[C@H](CC(=O)O)NC1=O)NC(=O)[C@H](C)NC(=O)[C@H](CC(=O)O)NC2=O (stereo partly drawn) [I-308, Ac-PL3-Asp-Ala-B5-Asp-Asp-Ala-Ala-4C1F-Val-S8-Phe-Trp-Gln-NH2] |

same assay, conditions: pH 7.4, CHI Log D

| Compound | chromatographic logD |
| --- | --- |
| CC(=O)N[C@@H](Cc1ccccc1)C(=O)N[C@@H](CC(=O)O)C(=O)N[C@@H](C)C(=O)N[C@]1(C)CCCCCCC=CCOC(=O)N2CC[C@@](C(=O)N[C@@H](Cc3cccnc3)C(=O)N[C@@H](Cc3c[nH]c4ccccc34)C(=O)N[C@@H](CCC(N)=O)C(N)=O)(C2)NC(=O)[C@H](C(C)C)NC(=O)[C@H](Cc2ccccc2)NC(=O)[C@H](C)NC(=O)[C@H](C)NC(=O)[C@H](CC(=O)O)NC(=O)[C@H](CC(=O)O)NC1=O (single isomer, unassigned) [I-82, Ac-Phe-Asp-Ala-R8-Asp-Asp-Ala-Ala-Phe-Val-PyrS-3PyrA-Trp-Gln-NH2] | 1 |
| CC(=O)N1CCC[C@]12CC=CCCCC1(CCCC=CCCCCCC[C@@](C)(C(=O)N[C@@H](Cc3ccccc3)C(=O)N[C@@H](Cc3c[nH]c4ccccc34)C(=O)N[C@@H](CCC(N)=O)C(N)=O)NC(=O)[C@H](C(C)C)NC(=O)[C@H](Cc3ccccc3)NC(=O)[C@H](C)NC(=O)[C@H](C)NC(=O)[C@H](CCc3ccccc3)NC(=O)[C@H](CC(=O)O)NC1=O)NC(=O)[C@H](C)NC(=O)[C@H](CC(=O)O)NC2=O (stereo partly drawn) [I-195, Ac-PL3-Asp-Ala-B5-Asp-hPhe-Ala-Ala-Phe-Val-S8-Phe-Trp-Gln-NH2] | 2.98 |
| CC(=O)N1CCC[C@]12CC=CCCCC1(CCCC=CCCCCCC[C@@](C)(C(=O)N[C@@H](Cc3ccccc3)C(=O)N[C@@H](Cc3ccc(-c4ccccc4)cc3)C(=O)N[C@@H](CCC(N)=O)C(N)=O)NC(=O)[C@H](C(C)C)NC(=O)[C@H](Cc3ccccc3)NC(=O)[C@H](C)NC(=O)[C@H](C)NC(=O)[C@H](CCC(=O)O)NC(=O)[C@H](CC(=O)O)NC1=O)NC(=O)[C@H](C)NC(=O)[C@H](CC(=O)O)NC2=O (stereo partly drawn) [I-145, Ac-PL3-Asp-Ala-B5-Asp-Glu-Ala-Ala-Phe-Val-S8-Phe-Bip-Gln-NH2] | 2.28 |
| CC(=O)N[C@@H](Cc1ccccc1)C(=O)N[C@@H](CC(=O)O)C(=O)N[C@@H](C)C(=O)N[C@]1(C)CCCCCCC=CCOC(=O)N2CC[C@@](C(=O)N[C@@H](Cc3ccccc3C(N)=O)C(=O)N[C@@H](Cc3c[nH]c4ccccc34)C(=O)N[C@@H](CCC(N)=O)C(N)=O)(C2)NC(=O)[C@H](C(C)C)NC(=O)[C@H](Cc2ccccc2)NC(=O)[C@H](C)NC(=O)[C@H](C)NC(=O)[C@H](CC(=O)O)NC(=O)[C@H](CC(=O)O)NC1=O (single isomer, unassigned) [I-105, Ac-Phe-Asp-Ala-R8-Asp-Asp-Ala-Ala-Phe-Val-PyrS-2CBMF-Trp-Gln-NH2] | 1.03 |
| CC(=O)N1CCC[C@]12CC=CCCCC1(CCCC=CCCCCCC[C@@](C)(C(=O)N[C@@H](Cc3c(F)c(F)c(F)c(F)c3F)C(=O)N[C@@H](Cc3c[nH]c4ccccc34)C(=O)N[C@@H](CCC(N)=O)C(N)=O)NC(=O)[C@H](C(C)C)NC(=O)[C@H](Cc3ccccc3)NC(=O)[C@H](C)NC(=O)[C@H](C)NC(=O)[C@H](CCC(=O)O)NC(=O)[C@H](CC(=O)O)NC1=O)NC(=O)[C@H](C)NC(=O)[C@H](CC(=O)O)NC2=O (stereo partly drawn) [I-183, Ac-PL3-Asp-Ala-B5-Asp-Glu-Ala-Ala-Phe-Val-S8-Pff-Trp-Gln-NH2] | 2.21 |

Now from value to compound:

| chromatographic logD | Compound |
| --- | --- |
| 1.18 | CC(=O)N[C@@H](Cc1ccccc1)C(=O)N[C@@H](CC(=O)O)C(=O)N[C@]1(C)CCN(C)C(=O)OCC=CCCCCC[C@@](C)(C(=O)N[C@@H](C)C(=O)N[C@@H](Cc2ccccc2)C(=O)N[C@@H](Cc2c[nH]c3ccccc23)C(=O)N[C@@H](CCC(N)=O)C(N)=O)NC(=O)[C@H](Cc2ccccc2)NC(=O)[C@H](C)NC(=O)[C@H](C)NC(=O)[C@H](CC(=O)O)NC(=O)[C@H](CC(=O)O)NC(=O)[C@H](C)NC1=O (single isomer, unassigned) [I-49, Ac-Phe-Asp-RdN-Ala-Asp-Asp-Ala-Ala-Phe-S7-Ala-Phe-Trp-Gln-NH2] |
| 3.03 | CC(=O)N1CCC[C@]12CC=CCCCC1(CCCC=CCCCCCC[C@@](C)(C(=O)N[C@@H](Cc3ccccc3)C(=O)N[C@@H](Cc3c[nH]c4ccccc34)C(=O)N[C@@H](CCC(N)=O)C(N)=O)NC(=O)[C@H](C(C)C)NC(=O)[C@H](Cc3ccccc3)NC(=O)[C@H](C)NC(=O)[C@H](C)NC(=O)[C@H](Cc3cccc4ccccc34)NC(=O)[C@H](CC(=O)O)NC1=O)NC(=O)[C@H](C)NC(=O)[C@H](CC(=O)O)NC2=O (stereo partly drawn) [I-234, Ac-PL3-Asp-Ala-B5-Asp-1NapA-Ala-Ala-Phe-Val-S8-Phe-Trp-Gln-NH2] |
